The structures appear in SMILES notation.

What all share (format): nucleic-acid assay
Test [1] has as its target Nucleic Acid. Nature of the test: Tested for binding affinity against RNA construct B.
Test [2] deals with Nucleic Acid. Briefly: Tested for binding affinity against RNA construct D.
The target in test [3] is Nucleic Acid. Nature of the test: Tested for binding affinity against RNA construct A.
The target in test [4] is Nucleic Acid. Briefly: Tested for binding affinity against RNA construct E.
Test [5] addresses Nucleic Acid. Briefly: Tested for binding affinity against RNA construct C; n.b. means no observable binding.
The target in test [6] is Nucleic Acid. Briefly: Tested for binding affinity against RNA construct C.
Test [7] addresses Nucleic Acid. Briefly: Tested for binding affinity against RNA construct D; n.b. means no observable binding.
Test [8] addresses Nucleic Acid. Nature of the test: Tested for binding affinity against RNA construct E; n.b. means no observable binding.
The target in test [9] is Nucleic Acid. Briefly: Tested for binding affinity against RNA construct A; n.b. means no observable binding.
The target of test [10] is Nucleic Acid. Briefly: Tested for binding affinity against RNA construct B; n.b. means no observable binding.

The Kd is a measure of binding affinity in units of concentration. High values mean a looser complex, low ones a tighter complex. With `NC[C@H]1O[C@H](O[C@H]2[C@H](O)[C@@H](O[C@H]3O[C@H](CO)[C@@H](O)[C@H](N)[C@H]3O)[C@H](N)C[C@@H]2N)[C@H](N)[C@@H](O)[C@@H]1O` [BEKANAMYCIN], the Kd in test [1] is 2.9 µM; in [2] it was 2.75 µM; in test [3], 2.95 µM; in test [4], 0.91 µM; in test [5], “No binding”.
`NC[C@@H]1O[C@H](O[C@H]2[C@@H](O)[C@H](O[C@@H]3[C@@H](O)[C@H](N)C[C@H](N)[C@H]3O[C@H]3O[C@H](CN)[C@@H](O)[C@H](O)[C@H]3N)O[C@@H]2CO)[C@H](N)[C@@H](O)[C@@H]1O` [FRAMYCETIN]: the equilibrium dissociation constant (Kd) in [2] worked out at 0.47 µM; in test [3], 0.41 µM; in test [4], 0.091 µM; in test [6], 4.34 µM.
For `NC[C@@H]1O[C@H](O[C@H]2[C@@H](O)[C@H](O[C@@H]3[C@@H](O)[C@H](N)C[C@H](N)[C@H]3O[C@H]3O[C@H](CO)[C@@H](O)[C@H](O)[C@H]3N)O[C@@H]2CO)[C@H](N)[C@@H](O)[C@@H]1O` [PAROMOMYCIN], the dissociation constant Kd in test [1] is 1.58 µM; in [2], 1.7 µM; in test [3] it was 1.64 µM; in [4] it was 0.4 µM; in test [6] it was 5.33 µM.
Regarding `CN[C@@H]1[C@H](O[C@H]2[C@H](O[C@H]3[C@H](O)[C@@H](O)[C@H](N=C(N)N)[C@@H](O)[C@@H]3N=C(N)N)O[C@@H](C)[C@]2(O)C=O)O[C@@H](CO)[C@H](O)[C@H]1O` [STREPTOMYCIN], the Kd result in [7], in [8], in test [9], in [5] and in test [10] was “No binding” each time.
With `NC[C@H]1O[C@H](O[C@H]2[C@H](O)[C@@H](O[C@H]3O[C@H](CO)[C@@H](O)[C@H](N)[C@H]3O)[C@H](N)C[C@@H]2N)[C@H](N)C[C@@H]1O` [TOBRAMYCIN], the dissociation constant (Kd) in [1] was 2.04 µM; in test [3], 2.07 µM; in test [4], 0.68 µM; in test [5] it was “No binding”.
